Assay results taken from US20030171218A1, “Substituted 3-heteroaryl(amino- or oxy)pyrrolidin-2-ones, their preparation and use as herbicides or plant growth regulators” (priority 2001, published 2003).

Key:
[1] = system: harmful plants such as Digitaria sanguinalis, Echinochloa crus-galli, Setaria faberi, Setaria viridis, Sorghum halepense, Abutilon theophrasti, Amaranthum …; assay: Post-emergence effect on weeds (greenhouse pot test); type: in vivo, monocotyledonous and dicotyledonous weeds; settings: application rate of 1 kg and less of active substance per hectare; treated at three-leaf stage; scored visually after about 3 to 4 weeks by comparison with untreated controls
Protocol: Seeds or rhizome pieces of monocotyledonous and dicotyledonous weeds are placed in sandy loam soil in plastic pots, covered with soil and grown in a greenhouse under good growth conditions. Three weeks after sowing, the test plants are treated at the three-leaf stage. The compounds according to the invention which were formulated as wettable powders or emulsion concentrates are sprayed, at various dosages, onto the green parts of the plants at an application rate of 600 to 800 l of water/ha (converted). After the test plants have remained in the greenhouse for about 3 to 4 weeks under optimum growth conditions, the effect of the preparations is scored visually by comparison with untreated controls. The agents according to the invention also have good herbicidal activity post-emergence against a broad spectrum of economically important weed grasses and broad-leafed weeds.

[2] = system: weed plants such as Digitaria sanguinalis, Echinochloa crus-galli, Setaria faberi, Setaria viridis, Sorghum halepense, Abutilon theophrasti, Amaranthum …; assay: Pre-emergence effect on weeds (greenhouse pot test); type: in vivo, monocotyledonous and dicotyledonous weed plants; settings: application rate of 1 kg or less of active substance per hectare; scored visually after 3 to 4 weeks by comparison with untreated controls
From the text: Seeds or rhizome pieces of monocotyledonous and dicotyledonous weed plants are placed in sandy loam soil in plastic pots and covered with soil. The compounds according to the invention which are formulated in the form of wettable powders or emulsion concentrates are then applied to the surface of the soil cover in the form of aqueous suspensions or emulsions at an application rate of 600 to 800 l of water/ha (converted), in various dosages.
After the treatment, the pots are placed in a greenhouse and kept under good growth conditions for the weeds. After the test plants have emerged, the damage to the plants or the negative effect on the emergence is scored visually after a test period of 3 to 4 weeks by comparison with untreated controls. As shown by the test results, compounds according to the invention have good herbicidal pre-emergence activity against a broad spectrum of weed grasses and broad-leafed weeds.

Row | Compound | herbicidal activity post-emergence [1] | herbicidal activity pre-emergence [2]
1 | CC(F)c1nc(N)nc(OC2CCN(c3cccc(C(F)(F)F)c3)C2=O)n1 (stereo not shown) [Example A37] | very good herbicidal activity | very good herbicidal activity
2 | Cc1cccc(N2CCC(Oc3nc(N)nc(C(C)F)n3)C2=O)c1 (stereo not shown) [Example A38] | very good herbicidal activity | very good herbicidal activity
3 | Cc1cc(C)cc(N2CCC(Oc3nc(N)nc(C(C)F)n3)C2=O)c1 (stereo not shown) [Example A39] | very good herbicidal activity | very good herbicidal activity
4 | Cc1cc(N2CCC(Oc3nc(N)nc(C(C)F)n3)C2=O)ccc1F (stereo not shown) [Example A40] | very good herbicidal activity | very good herbicidal activity
5 | COc1cccc(N2CCC(Oc3nc(N)nc(C(C)F)n3)C2=O)c1 (stereo not shown) [Example A41] | very good herbicidal activity | very good herbicidal activity
6 | CC(F)c1nc(N)nc(OC2CCN(c3cccc(OC(F)(F)F)c3)C2=O)n1 (stereo not shown) [Example A42] | very good herbicidal activity | very good herbicidal activity
7 | CC(F)c1nc(N)nc(OC2CCN(c3cccc(Cl)c3)C2=O)n1 (stereo not shown) [Example A43] | very good herbicidal activity | very good herbicidal activity
8 | CC(F)c1nc(N)nc(OC2CCN(c3cccc(F)c3)C2=O)n1 (stereo not shown) [Example A44] | very good herbicidal activity | very good herbicidal activity
9 | CC(C)c1nc(N)nc(OC2CCN(c3ccccc3)C2=O)n1 (stereo not shown) [Example A45] | very good herbicidal activity | very good herbicidal activity
10 | CC(C)c1nc(N)nc(OC2CCN(c3cccc(C(F)(F)F)c3)C2=O)n1 (stereo not shown) [Example A46] | very good herbicidal activity | very good herbicidal activity
11 | Cc1cccc(N2CCC(Oc3nc(N)nc(C(C)C)n3)C2=O)c1 (stereo not shown) [Example A47] | very good herbicidal activity | very good herbicidal activity
12 | Cc1cc(C)cc(N2CCC(Oc3nc(N)nc(C(C)C)n3)C2=O)c1 (stereo not shown) [Example A48] | very good herbicidal activity | very good herbicidal activity
13 | Cc1cc(N2CCC(Oc3nc(N)nc(C(C)C)n3)C2=O)ccc1F (stereo not shown) [Example A49] | very good herbicidal activity | very good herbicidal activity
14 | COc1cccc(N2CCC(Oc3nc(N)nc(C(C)C)n3)C2=O)c1 (stereo not shown) [Example A50] | very good herbicidal activity | very good herbicidal activity
15 | CC(C)c1nc(N)nc(OC2CCN(c3cccc(OC(F)(F)F)c3)C2=O)n1 (stereo not shown) [Example A51] | very good herbicidal activity | very good herbicidal activity
16 | CC(C)c1nc(N)nc(OC2CCN(c3cccc(Cl)c3)C2=O)n1 (stereo not shown) [Example A52] | very good herbicidal activity | very good herbicidal activity
17 | CC(C)c1nc(N)nc(OC2CCN(c3cccc(F)c3)C2=O)n1 (stereo not shown) [Example A53] | very good herbicidal activity | very good herbicidal activity
18 | CC(C)(F)c1nc(N)nc(OC2CCN(c3cccc(C(F)(F)F)c3)C2=O)n1 (stereo not shown) [Example A54] | very good herbicidal activity | very good herbicidal activity

Row | Compound | herbicidal activity post-emergence [1] | herbicidal activity pre-emergence [2]
19 | Cc1cccc(N2CCC(Oc3nc(N)nc(C(C)(C)F)n3)C2=O)c1 (stereo not shown) [Example A56] | very good herbicidal activity | very good herbicidal activity
20 | Cc1cc(C)cc(N2CCC(Oc3nc(N)nc(C(C)(C)F)n3)C2=O)c1 (stereo not shown) [Example A57] | very good herbicidal activity | very good herbicidal activity
21 | Cc1cc(N2CCC(Oc3nc(N)nc(C(C)(C)F)n3)C2=O)ccc1F (stereo not shown) [Example A58] | very good herbicidal activity | very good herbicidal activity
22 | COc1cccc(N2CCC(Oc3nc(N)nc(C(C)(C)F)n3)C2=O)c1 (stereo not shown) [Example A59] | very good herbicidal activity | very good herbicidal activity
23 | CC(C)(F)c1nc(N)nc(OC2CCN(c3cccc(OC(F)(F)F)c3)C2=O)n1 (stereo not shown) [Example A60] | very good herbicidal activity | very good herbicidal activity
24 | CC(C)(F)c1nc(N)nc(OC2CCN(c3cccc(Cl)c3)C2=O)n1 (stereo not shown) [Example A61] | very good herbicidal activity | very good herbicidal activity
25 | CC(C)(F)c1nc(N)nc(OC2CCN(c3cccc(F)c3)C2=O)n1 (stereo not shown) [Example A62] | very good herbicidal activity | very good herbicidal activity
26 | CC(F)c1nc(N)nc(N(C)C2CCN(c3cccc(OC(F)(F)F)c3)C2=O)n1 (stereo not shown) [Example A63] | very good herbicidal activity | very good herbicidal activity
27 | CC(F)c1nc(N)nc(N(C)C2CCN(c3cccc(C(F)(F)F)c3)C2=O)n1 (stereo not shown) [Example A64] | very good herbicidal activity | very good herbicidal activity
28 | Cc1cc(C)cc(N2CCC(N(C)c3nc(N)nc(C(C)F)n3)C2=O)c1 (stereo not shown) [Example A65] | very good herbicidal activity | very good herbicidal activity
29 | CC(F)c1nc(N)nc(N(C)C2CCN(c3cccc(Cl)c3)C2=O)n1 (stereo not shown) [Example A66] | very good herbicidal activity | very good herbicidal activity
30 | Cc1cc(N2CCC(N(C)c3nc(N)nc(C(C)F)n3)C2=O)ccc1F (stereo not shown) [Example A67] | very good herbicidal activity | very good herbicidal activity
31 | CC(F)c1nc(N)nc(N(C)C2CCN(c3cccc(F)c3)C2=O)n1 (stereo not shown) [Example A69] | very good herbicidal activity | very good herbicidal activity
32 | CC(C)c1nc(N)nc(N(C)C2CCN(c3cccc(C(F)(F)F)c3)C2=O)n1 (stereo not shown) [Example A70] | very good herbicidal activity | very good herbicidal activity
33 | Cc1cc(C)cc(N2CCC(N(C)c3nc(N)nc(C(C)C)n3)C2=O)c1 (stereo not shown) [Example A71] | very good herbicidal activity | very good herbicidal activity
34 | CC(C)c1nc(N)nc(N(C)C2CCN(c3cccc(Cl)c3)C2=O)n1 (stereo not shown) [Example A72] | very good herbicidal activity | very good herbicidal activity
35 | Cc1cc(N2CCC(N(C)c3nc(N)nc(C(C)C)n3)C2=O)ccc1F (stereo not shown) [Example A73] | very good herbicidal activity | very good herbicidal activity
